Test results from patent US12459985B2, “G-protein-coupled receptor internal sensors” (THE REGENTS OF THE UNIVERSITY OF CALIFORNIA, priority 2016, dated 2025).

Key:
Mu-opioid receptor = test: Opioid sensor (cpGFP in Loop3 of the Mu-opioid receptor) response in HEK293T cells; format: cell-based, human
[1] = target: Beta2AR with a cpGFP integrated into the third intracellular loop (Homo sapiens, UniProt P07550)
5HT2A receptor = 5HT2A receptor (Homo sapiens, UniProt P28223, DEL264-288/DEL297-315/INS291[…]/INS295[…]/K293E/S316L); test: 5HT2A receptor sensor with universal module 2, fluorescence response; format: cell-based; conditions: universal module 2 in 5HT2A receptor
B2AR [2] = target: T1, B2AR (Homo sapiens, UniProt P07550, C265Q/D251A/E249T/E27Q/F240D/F264D/G16R/G238K/G257K/INS236[…]/INS254[…]/K235L/K263H/N244L/Q243V/Q247F/Q250A/R253I/R259E/R260Y/S246E/S261N/S262N/V242M); format: cell-based; conditions: universal module 1 in B2AR; 10 μM
T1 construct: expressed in transfected cells

B2AR [3] = target: B2AR (Homo sapiens, UniProt P07550, C265Q/D251A/E249T/E27Q/F240D/F264D/G16R/G238K/G257K/INS233[…]/INS254[…]/K232L/K235P/K263H/L230S/N244L/Q229L/Q231S/Q243V/Q247F/Q250A/R253I/R259E/R260Y/S236N/S246E/S261N/S262N/V242M); test: B2AR sensor with universal module 2, fluorescence response; format: cell-based; conditions: inserted into EAKR-deleted third intracellular loop residues-KEHK of B2AR

Chain of 5HT2A receptor (P28223 with tags, fused parts or gaps with the stated changes): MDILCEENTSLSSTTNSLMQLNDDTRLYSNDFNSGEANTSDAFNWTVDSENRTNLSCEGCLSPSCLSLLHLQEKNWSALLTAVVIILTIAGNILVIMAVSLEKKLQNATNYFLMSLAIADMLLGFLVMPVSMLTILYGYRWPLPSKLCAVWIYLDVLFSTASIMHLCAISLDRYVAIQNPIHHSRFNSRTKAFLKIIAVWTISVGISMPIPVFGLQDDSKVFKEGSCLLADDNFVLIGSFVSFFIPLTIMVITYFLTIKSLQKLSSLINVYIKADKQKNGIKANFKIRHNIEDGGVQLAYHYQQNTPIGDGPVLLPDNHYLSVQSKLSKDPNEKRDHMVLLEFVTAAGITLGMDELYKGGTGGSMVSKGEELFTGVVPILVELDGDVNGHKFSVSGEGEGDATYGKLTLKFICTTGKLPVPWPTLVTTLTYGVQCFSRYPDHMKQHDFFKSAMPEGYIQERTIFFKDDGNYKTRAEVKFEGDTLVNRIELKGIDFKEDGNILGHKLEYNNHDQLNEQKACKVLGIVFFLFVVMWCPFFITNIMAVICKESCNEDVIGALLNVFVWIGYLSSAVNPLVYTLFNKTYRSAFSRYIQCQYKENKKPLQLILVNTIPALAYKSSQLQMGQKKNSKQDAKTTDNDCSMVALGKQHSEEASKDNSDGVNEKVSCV

NCCc1ccc(O)c(O)c1 [Dopamine]
specific response of the sensor ([1]; 50 μM, non-Beta2AR ligands): did not detect any specific response

NCCc1c[nH]c2ccc(O)cc12 [Serotonin]
ΔF/F response (5HT2A receptor): ~30%

NC[C@H](O)c1ccc(O)c(O)c1 [norepinephrine]
ΔF/F (B2AR [2]): 150%
τ½ON ([1]; time constant of association, saturating conditions (1 μM drug)): 29.62 s
τ½OFF ([1]; time constant of dissociation, saturating conditions (1 μM drug)): 106.91 s

LSSLI-cpGFP-NHDQL [Universal module 2]
ΔF/F (B2AR [3]): 100%
